Publication PMC8199001, “Design, Synthesis, and Biological Evaluation of Novel 6H-Benzo[c]chromen-6-one Derivatives as Potential Phosphodiesterase II Inhibitors” (International Journal of Molecular Sciences, 2021)
Entries after “also recorded” stand apart in the source; their conditions may differ.

Columns and labels:
[1] = biological target: PDE2 (Homo sapiens, UniProt O00408); assay: In vitro PDE2 enzymatic inhibition assay (Bio-cAMP substrate, AlphaScreen detection); assay type: biochemical;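 further: enzyme reaction run 0.5 h, then anti-cAMP acceptor and streptavidin donor beads added for 1 h in the dark before plate reading, compounds serially diluted from DMSO stock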
Protocol: Preparation of 1*Rection Buffer: we took 1 mL 10*Rection Buffer, added 9 mL ultra-pure water to swirl and mix well, and put it on ice; preparation of PDE2 solution: 210 μL of 1*Rection Buffer were added into a centrifuge tube, then 30 μL PDE2 were added, mixed well, equal to 8-times dilution, and placed on ice; preparation of compound solution with gradient concentration: DMSO was used as the solvent to prepare 10 mM compound solution, and then diluted with 1*Rection Buffer.
We took 2 μL of the diluted compound solution of each concentration into the microplate, added 4 μL PDE2 solution, numbered them A1–A9, added 2 μL 1*Rection Buffer and 4 μL PDE2 into A10, added 2 μL compound solution and 4 μL 1*Rection Buffer to A11, added 6 μL 1*Rection Buffer to A13, and ensured the three groups are parallel to each other. […] The reaction time was 0.5 h in the microporous plate thermostatic oscillator.
Anti-Camp Alohascreen Acceptor and Streptavidin Coated Donor Bead were purchased from Perkin Elmer Company according to response volume: 1* Immunoassay Buffer 549.32 μL and 3.70 μL anti-cAMP AlohaScreen Acceptor were collected under dark conditions. We took 1.98 μL Streptavidin coated Donor Bead, mixed well, added 15 μL mixture to each well after 1 h reaction, and reacted it in the dark for 1 h. After the reaction, we tested it with multilabel microplate detector.

[2] = test system: HT-22 cells; assay: Protection of HT-22 cells against corticosterone-induced neurotoxicity (cell viability); assay type: cell-based
Excerpt: Corticosterone can induce PDE2A, PDE3B, PDE4A, PDE4D, PDE10, and PDE11 expression in HT-22 cells, which results in significant cell lesion. Thus, corticosterone-induced HT-22 neurotoxicity was generally employed as classical cell model to screen PDE-inhibitors for curing neurodegenerative disease, such as AD and PD.
To determine whether compound 1f could promote neuron proliferation and protect HT-22 cells against corticosterone-induced neurotoxicity by PDE2 inhibition, the viability of HT-22 cells was measured in the presence of 100 μM corticosterone (positive control), corticosterone absence (control), and different concentrations of 1f.
We added 943 µL of DMSO solution to 8.2 mg of dexamethasone acetate to obtain a 20 mM stock solution, froze it at −20 °C, and diluted it to 2 mM with serum-containing medium before use. The test compound was dissolved in DMSO to obtain a 20 mM stock solution and stored at −20 °C. Diluted with serum-containing medium to a concentration of 2 × 100, 2 × 50, 2 × 25, 2 × 12.5, 2 × 6.25, 2 × 3.125 μM before use.
After resuscitation, HT-22 cells were cultured in DMEM medium (containing 10% FBS) at 37 °C with 5% CO2. After the cells grew to more than 80% cell fusion, we passaged and seeded the plate, and the density of each well should be 10,000 cells/100 μL/well and cultured for 24 h. After the cells adhered to the wall, drug intervention was given.
10 µL solution of 2 mM dexamethasone acetate was cultured at 37 °C for 30 min. 100 µL drug solution of 2 × 100, 2 × 50, 2 × 25, 2 × 12.5, 2 × 6.25, and 2 × 3.125 μM were added to make the final concentration of dexamethasone acetate 100 μM, and the final concentrations of the drug were 100, 50, 25, 12.5, 6.25, 3.125 μM. After preparation, it took another 24 h to continue the culture. […]
After the incubation, 50 µL of MTT was added to each well, and it needed another 4 h to incubate. […] Finally, the wavelength A 490 was measured. The data were expressed as mean ± sd (n = 5), and one-way anova analysis of variance was used for data statistics; p < 0.05 is defined as a significant difference.

Chain of PDE2 (O00408 whole entry): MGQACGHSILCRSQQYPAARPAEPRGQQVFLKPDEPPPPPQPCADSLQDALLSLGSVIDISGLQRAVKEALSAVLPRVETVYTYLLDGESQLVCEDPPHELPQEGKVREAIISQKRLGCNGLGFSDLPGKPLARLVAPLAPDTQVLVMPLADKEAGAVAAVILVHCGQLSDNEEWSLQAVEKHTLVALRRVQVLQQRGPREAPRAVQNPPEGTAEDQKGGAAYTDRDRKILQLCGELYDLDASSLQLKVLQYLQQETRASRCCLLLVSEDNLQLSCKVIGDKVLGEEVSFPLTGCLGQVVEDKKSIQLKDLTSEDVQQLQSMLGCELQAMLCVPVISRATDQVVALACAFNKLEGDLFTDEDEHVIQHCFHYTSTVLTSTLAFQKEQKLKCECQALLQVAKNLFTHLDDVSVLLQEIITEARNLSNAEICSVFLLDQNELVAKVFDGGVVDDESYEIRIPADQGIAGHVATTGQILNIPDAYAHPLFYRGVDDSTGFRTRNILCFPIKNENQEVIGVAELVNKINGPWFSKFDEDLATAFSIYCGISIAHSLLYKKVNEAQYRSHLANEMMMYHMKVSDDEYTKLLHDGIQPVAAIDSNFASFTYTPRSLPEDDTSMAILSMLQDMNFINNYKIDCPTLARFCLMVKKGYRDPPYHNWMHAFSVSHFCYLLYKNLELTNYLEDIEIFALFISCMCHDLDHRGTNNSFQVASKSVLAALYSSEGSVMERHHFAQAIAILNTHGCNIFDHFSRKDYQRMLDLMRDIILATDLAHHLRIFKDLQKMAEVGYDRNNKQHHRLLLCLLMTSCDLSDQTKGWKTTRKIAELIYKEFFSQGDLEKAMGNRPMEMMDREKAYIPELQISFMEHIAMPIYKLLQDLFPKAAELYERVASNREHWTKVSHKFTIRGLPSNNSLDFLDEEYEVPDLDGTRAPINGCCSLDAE

**Q.** With `CCCCOc1ccc2c(c1)oc(=O)c1ccccc12` [Compound 1f, 3-butoxy-6H-benzo[c]chromen-6-one] as the molecule, how does the “PDE2 inhibitory activity (result in words)” value ([1]; enzyme level) read?
**A.** Its value is “good PDE2 inhibitory activity”.

**Q.** And the IC50 ([1]; in vitro, Bio-cAMP as substrate, mean of at least three experiments)?
**A.** The IC50 was 3.67 ± 0.47 µM.

**Q.** What about the “Cell viability of HT-22 cells exposed to corticosterone (result in words)” value ([2]; 100 μM corticosterone, compound 6.25~25 μM, 24 h, dose-dependent) of the same molecule?
**A.** Its value is “protected cells against corticosterone (CORT)-induced cytotoxicity in a concentration-dependent manner; also recorded: significantly increased cell viability; also recorded: protect HT-22 cells from corticosterone-induced death”.

**Q.** And the “Best concentration for increasing HT-22 cell viability” value ([2]; 100 μM corticosterone, p < 0.01)?
**A.** Its value is 12.5 µM.

**Q.** What about the “Protective effect on HT-22 cells compared with BAY 60-7550” value ([2]; comparison with BAY 60-7550 at 1.0 μM) of the same molecule?
**A.** The value was “similar; also recorded: comparable activity”.

**Q.** And the melting point?
**A.** The melting point was 53.6 to 55.5 °C.
